# Experimental data as given in patent publication US10898548B2, “Modulators of protein tyrosine phosphatase and uses thereof” (LEUVAS THERAPEUTICS, priority 2015, dated 2021).
# Tested on: protein tyrosine phosphorylation in fMLP-stimulated monocytes
# Assay: Kinexus antibody microarray of tyrosine phosphorylation in fMLP-stimulated monocytes
# Format: cell-based, human
# Set-up: key to Functional effect of P1-WD on BTK / Functional effect of P1-WD on CDK2 / Functional effect of P1-WD on CTTN / Functional effect of P1-WD on DAB1 / Functional effect of P1-WD on DOK2 / Functional effect of P1-WD on ERBB2 / Functional effect of P1-WD on GRIN2B / Functional effect of P1-WD on ITGB1 / Functional effect of P1-WD on JAK2 / Functional effect of P1-WD on KDR / Functional effect of P1-WD on KIT / Functional effect of P1-WD on LIMK1 / Functional effect of P1-WD on MET / Functional effect of P1-WD on PDGFRA / Functional effect of P1-WD on PDGFRB / Functional effect of P1-WD on PRKCD / Functional effect of P1-WD on SHC1 / Functional effect of P1-WD on STAT1 / Functional effect of P1-WD on STAT2 / Functional effect of P1-WD on STAT3 / Functional effect of P1-WD on STAT5A / Functional effect of P1-WD on VCL / Functional effect of P1-WD on ABL1 / Functional effect of P1-WD on BLNK / Functional effect of P1-WD on BMX: inhibition (IN); activation (ACT)
# Source text: To identify PTPRG targets in the context of fMLP signaling, we employed a high throughput antibody array technology using the P1-WD approach and fMLP-potentiated signaling networks, since this directly correlates with integrin triggering and mediated rapid adhesion. To analyze the phosphoproteome we used the comprehensive high throughput service developed by Kinexus, CA, USA. The Kinexus antibody microarray includes about 500 pan-specific and over 350 phosphosite-specific antibodies per chip, in duplicate spots. The analysis covers a variety of selected cell signaling proteins regulating cell proliferation, stress, apoptosis, adhesion, secretion, motility and other biological processes. Monocytes were treated with 50 μM P1 or P1-WD peptides for 60 min. at 37° C. and then stimulated with 50 nM fMLP for 3 min. Cells were immediately lysed according to Kinexus protocol and the samples were sent to Kinexus for microarray analysis. Data were normalized to control cells and statistically filtered by Kinexus to identify the most significant best hits. The analysis was, then, focused on phosphotyrosine-specific antibodies. Network inference analysis was performed within Cytoscape 3.1 bioinformatics environment by using previously established interatomic datasets compiled from public data-bases. The compiled protein-protein interatomic data-set was manually curated to remove self-loops and duplicate edges; different protein IDs were normalized to HGNC standard IDs. The set of 31 identified proteins whose tyrosine phosphorylation status was affected by PTPRG activity was used as bioinformatics probe allowing sub-network reconstruction. Directed node centrality indexes were computed with the Cytoscape plug-in Centiscape 2.1 (Scardoni G, et al., 2009, Bioinformatics 25: 2857-2859). Network modular decomposition was executed with the Cytoscape plug-in MCODE (Bader G, et al., 2003, BMC Bioinformatics 4: 2). Literature data mining was performed by multiple data base interrogation, mainly based on Phosphosite, PhosphoELM, PhosphoNet and KEA.
# Data analysis identified 31 molecules whose phosphorylation was modified in a statistically significant manner (Table 9). Values in % columns are percentage increase or decrease of protein tyrosine phosphorylation upon fMLP-triggering in P1-WD-treated vs P1-control treated monocytes. For some proteins (For some proteins (EGFR, INSR, KDR, KIT, PDGFRA, PTK2, PXN, SRC and ZAP70) multiple phosphotyrosine residues are detected. From left to right, columns are HGNC protein symbols (in alphabetic order), phosphosites (p-Sites), changes of phosphorylation (induced by P1-WD) and the putative functional effect, inferred from literature data-mining. EGFR and PTK2 are highlighted in gray since the functional effect could not be unambiguously inferred. The functional effect of P1-WD in the far right column indicates either inhibition (IN) or activation (ACT).
# [1] = P1-WD vs P1, 50 μM 60 min, 50 nM fMLP 3 min
# [2] = putative, inferred from literature data-mining
# [3] = putative, inferred from literature data-mining, per p-Site
substance,measurement,setting,value
"P1-WD: fusion Trojan peptide SEQ ID 3: Penetratin, glycine, PTPRG wedge domain aa 831-856; RQIKIWFQNRRMKWKKGKQFVKHIGELYSNNQHGFSEDFEEVQ (listed as Homo sapiens)",change of ABL1 Y412 tyrosine phosphorylation,[1],−40%
same,change of BLNK Y84 tyrosine phosphorylation,[1],19%
same,change of BMX Y40 tyrosine phosphorylation,[1],−7%
same,change of BTK Y223 tyrosine phosphorylation,[1],−58%
same,change of CDK2 Y15 tyrosine phosphorylation,[1],282%
same,change of CTTN Y470 tyrosine phosphorylation,[1],21%
same,change of DAB1 Y198 tyrosine phosphorylation,[1],−34%
same,change of DOK2 Y142 tyrosine phosphorylation,[1],9%
same,change of EGFR Y1068 tyrosine phosphorylation,[1],−13%
same,change of EGFR Y1148 tyrosine phosphorylation,[1],−16%
same,change of EGFR Y1173 tyrosine phosphorylation,[1],68%
same,change of ERBB2 Y1248 tyrosine phosphorylation,[1],34%
same,change of GRIN2B Y1474 tyrosine phosphorylation,[1],29%
same,change of INSR Y999 tyrosine phosphorylation,[1],58%
same,change of INSR Y1189/Y1190 tyrosine phosphorylation,[1],27%
same,change of ITGB1 Y783 tyrosine phosphorylation,[1],−11%
same,change of JAK2 Y1007/Y1008 tyrosine phosphorylation,[1],−33%
same,change of KDR Y1054 + Y1059 tyrosine phosphorylation,[1],22%
same,change of KDR Y1054 tyrosine phosphorylation,[1],−37%
same,change of KIT Y703 tyrosine phosphorylation,[1],−60%
same,change of KIT Y730 tyrosine phosphorylation,[1],−47%
same,change of LIMK1 Y507 tyrosine phosphorylation,[1],−10%
same,change of MET Y1003 tyrosine phosphorylation,[1],−47%
same,change of PDGFRA Y742 tyrosine phosphorylation,[1],133%
same,change of PDGFRA Y754 tyrosine phosphorylation,[1],86%
same,change of PDGFRB Y716 tyrosine phosphorylation,[1],−36%
same,change of PRKCD Y313 tyrosine phosphorylation,[1],189%
same,change of PTK2 Y397 tyrosine phosphorylation,[1],30%
same,change of PTK2 Y576 tyrosine phosphorylation,[1],65%
same,change of PTK2 Y577 tyrosine phosphorylation,[1],−60%
same,change of PTK2 Y861 tyrosine phosphorylation,[1],−11%
same,change of PXN Y31 tyrosine phosphorylation,[1],19%
same,change of PXN Y118 tyrosine phosphorylation,[1],144%
same,change of SHC1 Y349 + Y350 tyrosine phosphorylation,[1],−10%
same,change of SRC Y419 tyrosine phosphorylation,[1],−6%
same,change of SRC Y530 tyrosine phosphorylation,[1],94%
same,change of STAT1 Y701 tyrosine phosphorylation,[1],38%
same,change of STAT2 Y690 tyrosine phosphorylation,[1],61%
same,change of STAT3 Y705 tyrosine phosphorylation,[1],182%
same,change of STAT5A Y694 tyrosine phosphorylation,[1],50%
same,change of VCL Y821 tyrosine phosphorylation,[1],−20%
same,change of ZAP70 Y292 tyrosine phosphorylation,[1],−46%
same,change of ZAP70 Y315 + Y319 tyrosine phosphorylation,[1],12%
same,Functional effect of P1-WD on ABL1,[2],IN
same,Functional effect of P1-WD on BLNK,[2],ACT
same,Functional effect of P1-WD on BMX,[2],IN
same,Functional effect of P1-WD on BTK,[2],IN
same,Functional effect of P1-WD on CDK2,[2],IN
same,Functional effect of P1-WD on CTTN,[2],IN
same,Functional effect of P1-WD on DAB1,[2],IN
same,Functional effect of P1-WD on DOK2,[2],ACT
same,Functional effect of P1-WD on ERBB2,[2],ACT
same,Functional effect of P1-WD on GRIN2B,[2],ACT
same,Functional effect of P1-WD on ITGB1,[2],IN
same,Functional effect of P1-WD on JAK2,[2],IN
same,Functional effect of P1-WD on KDR,[2],IN
same,Functional effect of P1-WD on KIT,[2],IN
same,Functional effect of P1-WD on LIMK1,[2],IN
same,Functional effect of P1-WD on MET,[2],IN
same,Functional effect of P1-WD on PDGFRA,[2],ACT
same,Functional effect of P1-WD on PDGFRB,[2],IN
same,Functional effect of P1-WD on PRKCD,[2],ACT
same,Functional effect of P1-WD on SHC1,[2],IN
same,Functional effect of P1-WD on STAT1,[2],ACT
same,Functional effect of P1-WD on STAT2,[2],ACT
same,Functional effect of P1-WD on STAT3,[2],ACT
same,Functional effect of P1-WD on STAT5A,[2],ACT
same,Functional effect of P1-WD on VCL,[2],IN
same,Functional effect of P1-WD on INSR,[3],ACT/ACT
same,Functional effect of P1-WD on PXN,[3],ACT/ACT
same,Functional effect of P1-WD on SRC,[3],IN/IN
same,Functional effect of P1-WD on ZAP70,[3],ACT/ACT
same,Functional effect of P1-WD on PTK2,"putative, inferred from literature data-mining, per p-Site Y397/Y577/Y576/Y861, cell wraps to r32 (/IN)",ACT/IN/ACT
same,Functional effect of P1-WD on EGFR,"putative, inferred from literature data-mining, per p-Site Y1068/Y1148/Y1173",IN/IN/ACT
